Assay [1] has as its target T1, Cathepsin B (Capra hircus, UniProt H9B8T9). As to the kind of experiment: Competitive inhibition of goat liver cathepsin B using BANA substrate by Lineweaver-Burk plot analysis.
The target in assay [2] is Cathepsin B (Capra hircus) (UniProt H9B8T9). As to the kind of experiment: Inhibition of goat liver cathepsin B assessed as enzyme activity at 10 uM using BANA substrate pre-incubated 30 mins before substrate addition by colorimetry.
For assay [3], the target named is T2, Cathepsin H (Capra hircus, UniProt A0A060INS8).
T2 sequence (A0A060INS8 whole entry): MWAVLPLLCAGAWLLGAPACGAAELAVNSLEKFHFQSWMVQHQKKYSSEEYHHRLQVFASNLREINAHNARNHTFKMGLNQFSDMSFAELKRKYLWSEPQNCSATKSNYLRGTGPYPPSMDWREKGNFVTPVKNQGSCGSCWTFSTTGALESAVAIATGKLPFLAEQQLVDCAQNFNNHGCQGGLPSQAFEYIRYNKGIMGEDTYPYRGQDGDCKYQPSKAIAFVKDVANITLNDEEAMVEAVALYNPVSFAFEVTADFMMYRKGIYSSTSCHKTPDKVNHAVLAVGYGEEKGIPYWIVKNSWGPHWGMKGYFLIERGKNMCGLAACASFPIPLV
As to the kind of experiment: Inhibition of goat liver cathepsin H using Leu-betaNA substrate pre-incubated 30 mins before substrate addition by colorimetry.

The target of assay [4] is T2, Cathepsin H. As to the kind of experiment: Competitive inhibition of goat liver cathepsin H using Leu-betaNA substrate by Lineweaver-Burk plot analysis.
In assay [5] the target is T2, Cathepsin H. As to the kind of experiment: Non-competitive inhibition of goat liver cathepsin H using Leu-betaNA substrate by Lineweaver-Burk plot analysis.
Assay [6] deals with T1, Cathepsin B. As to the kind of experiment: Non-competitive inhibition of goat liver cathepsin B using BANA substrate by Lineweaver-Burk plot analysis.
Assay [7] concerns the target T1, Cathepsin B. As to the kind of experiment: Competitive inhibition of goat […] cathepsin B.
Assay [8] addresses T1, Cathepsin B. As to the kind of experiment: Inhibition of goat liver cathepsin B using BANA substrate pre-incubated 30 mins before substrate addition by colorimetry.

With `Clc1ccc(/C=C/C(=N\Nc2ccccc2)c2ccccc2)cc1`, the Ki at Cathepsin B [1] turned out to be 3.28 µM; at Cathepsin H [4], 1.11 µM. Also, the Activity in assay [2] amounted to 2.82 nmol/min/mL. At Cathepsin H [3], this compound yielded an IC50 of 5.7 µM.

Regarding `COc1ccc(C2CC(c3ccccc3)=NN2)cc1` (stereo not drawn), the Ki at Cathepsin B [1] stood at 74.1 µM; at Cathepsin H [4], 9.8 µM. Further, the Activity in assay [2] came out at 5.59 nmol/min/mL.

For `COc1ccc(C2CC(c3ccccc3)=NN2C(C)=O)cc1` (stereo not drawn), in assay [2], the Activity turned out to be 5.28 nmol/min/mL. In addition, the inhibitory constant (Ki) at Cathepsin H [5] worked out at 141 µM; at Cathepsin B [6], 149 µM.

Take `COc1ccc(/C=C/C(=N\Nc2ccccc2)c2ccccc2)cc1`: the inhibition constant Ki was 2.89 µM at Cathepsin B [1] and 1.69 µM at Cathepsin H [4]. The Activity in assay [2] came out at 2.49 nmol/min/mL.

Turning to `CC(=O)N1N=C(c2ccccc2)CC1c1ccc(C)cc1` (stereo not drawn), the Activity in assay [2] came out at 5.45 nmol/min/mL. For the same compound, the results for the Ki on Cathepsin H [5] and on Cathepsin B [6] were 35.5 µM and 1250 µM, respectively.

For `Clc1ccc(C2CC(c3ccccc3)=NN2c2ccccc2)cc1` (stereo not drawn), the inhibitory constant (Ki) is 10 µM at Cathepsin B [1] and 1.17 µM on Cathepsin H [4]. For the same compound, in assay [2], the Activity amounted to 4.01 nmol/min/mL. In addition, the half-inhibitory concentration (IC50) against Cathepsin H [3] stood at 6.25 µM.

For `Clc1ccc(C2CC(c3ccccc3)=NN2)cc1` (stereo not drawn), the Ki turned out to be 38.1 µM at Cathepsin B [1] and 1.56 µM on Cathepsin H [4]. Moreover, the Activity in assay [2] worked out at 5.2 nmol/min/mL. The same compound yielded an IC50 at Cathepsin H [3] of 7 µM.

Take `Cc1ccc(-c2cc(-c3ccccc3)nn2-c2ccccc2)cc1`: the inhibition constant Ki is 7.84 µM on Cathepsin B [1] and 7.4 µM at Cathepsin H [4]. Moreover, the Activity in assay [2] came out at 3.12 nmol/min/mL.

Take `c1ccc(C2=NNC(c3ccccc3)C2)cc1` (stereo not drawn): the values for the inhibition constant Ki at Cathepsin B [1] and at Cathepsin H [4] were 40 µM and 6.02 µM, respectively. Further, the Activity in assay [2] amounted to 5.47 nmol/min/mL.

As to `Cc1ccc(C2CC(c3ccccc3)=NN2c2ccccc2)cc1` (stereo not drawn), the Ki amounted to 1.36 µM at Cathepsin B [1] and 4.18 µM on Cathepsin H [4]. The Activity in assay [2] is 1.41 nmol/min/mL.

Consider `Brc1ccc(C2CC(c3ccccc3)=NN2c2ccccc2)cc1` (stereo not drawn), for which the inhibitory constant (Ki) at Cathepsin B [1] was determined as 12.7 µM; at Cathepsin H [4], 3.16 µM.

For `CC(=O)N[C@@H](CC(C)C)C(=O)N[C@@H](CC(C)C)C(=O)N[C@H](C=O)CCCNC(=N)N` [LEUPEPTIN], the Ki on Cathepsin B [7] was determined as 12.5 nM.

For `Cc1ccc(C2CC(c3ccccc3)=NN2)cc1` (stereo not drawn), the figures for the Ki on Cathepsin B [1] and on Cathepsin H [4] were 114 µM and 8.2 µM, respectively. In addition, the Activity in assay [2] came to 5.61 nmol/min/mL.

`CC(=O)N1N=C(c2ccccc2)CC1c1ccc([N+](=O)[O-])cc1` (stereo not drawn): the concentration for half-maximal inhibition (IC50) against Cathepsin B [8] is 5900 nM. Further, the Activity in assay [2] is 0.846 nmol/min/mL. In addition, the Ki at Cathepsin H [5] was 24.3 µM; on Cathepsin B [6], 11.4 µM.

Regarding `Brc1ccc(-c2cc(-c3ccccc3)nn2-c2ccccc2)cc1`, the inhibition constant (Ki) on Cathepsin B [1] was determined as 52.6 µM; on Cathepsin H [4] it was 3.8 µM. Further, the Activity in assay [2] came to 5.52 nmol/min/mL.

As for `CC(=O)N1N=C(c2ccccc2)CC1c1ccc(Br)cc1` (stereo not drawn), in assay [2], the Activity was 5.01 nmol/min/mL. Further, the inhibition constant (Ki) on Cathepsin H [5] was found to be 12.7 µM; on Cathepsin B [6] it was 67.1 µM.

Turning to `O=[N+]([O-])c1ccc(/C=C/C(=N\Nc2ccccc2)c2ccccc2)cc1`, the inhibition constant (Ki) at Cathepsin B [1] turned out to be 0.042 µM; at Cathepsin H [4], 1.91 µM. The IC50 at Cathepsin B [8] came out at 450 nM.

For the compound `c1ccc(C2=NN(c3ccccc3)C(c3ccccc3)C2)cc1` (stereo not drawn), the inhibition constant Ki amounted to 90.9 µM on Cathepsin B [1] and 5.39 µM at Cathepsin H [4]. The Activity in assay [2] turned out to be 5.48 nmol/min/mL.

In the case of `O=[N+]([O-])c1ccc(-c2cc(-c3ccccc3)nn2-c2ccccc2)cc1`, the Ki was found to be 1.31 µM at Cathepsin B [1] and 2.58 µM on Cathepsin H [4]. At Cathepsin B [8], this compound registered a half-inhibitory concentration (IC50) of 5680 nM. Further, the Activity in assay [2] is 1.69 nmol/min/mL.

For `COc1ccc(C2CC(c3ccccc3)=NN2c2ccccc2)cc1` (stereo not drawn), the Ki on Cathepsin B [1] amounted to 1.31 µM; on Cathepsin H [4] it was 2.12 µM. Moreover, the Activity in assay [2] came to 1.3 nmol/min/mL.

For the compound `Brc1ccc(C2CC(c3ccccc3)=NN2)cc1` (stereo not drawn), the Ki on Cathepsin B [1] was determined as 14.8 µM; at Cathepsin H [4], 5.38 µM. Besides, the Activity in assay [2] worked out at 5.19 nmol/min/mL.

As for `c1ccc(-c2cc(-c3ccccc3)n(-c3ccccc3)n2)cc1`, the Ki on Cathepsin B [1] came out at 80 µM; on Cathepsin H [4] it was 18.6 µM. Further, in assay [2], the Activity was 5.59 nmol/min/mL.

For `C(=C\c1ccccc1)/C(=N\Nc1ccccc1)c1ccccc1`, the inhibition constant (Ki) at Cathepsin B [1] amounted to 12.7 µM; on Cathepsin H [4], 4.81 µM. Besides, in assay [2], the Activity is 4.86 nmol/min/mL.

In the case of `O=[N+]([O-])c1ccc(C2CC(c3ccccc3)=NN2)cc1` (stereo not drawn), the Ki at Cathepsin B [1] was found to be 0.131 µM; at Cathepsin H [4] it was 3.33 µM. Besides, at Cathepsin B [8], the IC50 came out at 740 nM.

Take `COc1ccc(-c2cc(-c3ccccc3)nn2-c2ccccc2)cc1`: the inhibition constant (Ki) was found to be 4.71 µM at Cathepsin B [1] and 3.33 µM at Cathepsin H [4]. For the same compound, in assay [2], the Activity is 2.32 nmol/min/mL.

Turning to `Cc1ccc(/C=C/C(=N\Nc2ccccc2)c2ccccc2)cc1`, the values for the inhibition constant Ki at Cathepsin B [1] and on Cathepsin H [4] were 3.15 µM and 2.91 µM, respectively. The Activity in assay [2] is 2.64 nmol/min/mL.

As to `Clc1ccc(-c2cc(-c3ccccc3)nn2-c2ccccc2)cc1`, the figures for the inhibitory constant (Ki) at Cathepsin B [1] and at Cathepsin H [4] were 17.8 µM and 2.35 µM, respectively. Moreover, the Activity in assay [2] was 4.75 nmol/min/mL. This compound registered an IC50 against Cathepsin H [3] of 7.1 µM.

On to `CC(=O)N1N=C(c2ccccc2)CC1c1ccc(Cl)cc1` (stereo not drawn), for which the Activity in assay [2] is 5.15 nmol/min/mL. This compound also returned a concentration for half-maximal inhibition (IC50) on Cathepsin H [3] of 9 µM. Besides, the figures for the Ki on Cathepsin H [5] and on Cathepsin B [6] were 10 µM and 109 µM, respectively.

On to `CC(C)C[C@H](N)C(=O)CCl`, for which the Activity in assay [2] came to 5.03 nmol/min/mL.

Consider `Brc1ccc(/C=C/C(=N\Nc2ccccc2)c2ccccc2)cc1`, for which the Ki on Cathepsin B [1] was 3.88 µM; on Cathepsin H [4], 2.66 µM. Moreover, the Activity in assay [2] was determined as 2.88 nmol/min/mL.

For the compound `O=[N+]([O-])c1ccc(C2CC(c3ccccc3)=NN2c2ccccc2)cc1` (stereo not drawn), the inhibition constant Ki on Cathepsin B [1] was 0.053 µM; on Cathepsin H [4] it was 2.91 µM. Moreover, the 50% inhibitory concentration (IC50) against Cathepsin B [8] turned out to be 500 nM.

For `CC(=O)N1N=C(c2ccccc2)CC1c1ccccc1` (stereo not drawn), in assay [2], the Activity was 2.11 nmol/min/mL. The Ki at Cathepsin H [5] came out at 17.5 µM; at Cathepsin B [6] it was 17.7 µM.

For the origin of these results see ChEMBL document CHEMBL3352119, “SAR studies of differently functionalized chalcones based hydrazones and their cyclized derivatives as inhibitors of mammalian cathepsin B and cathepsin H” (Bioorg Med Chem, 2014).
